Several values for one entry are separate records, joined by “and”; a condition that tells them apart may be missing. Equal values may be shown once.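 All cell lines were grown in 96-well plates and treated with compound for 48 hours. GI50 marks 50% less growth. TGI is the concentration that stops growth completely.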
Columns and labels:
Assay in all cases: DTP human tumour cell line panel, 48 h
RXF 393 renal = tested on: RXF 393 renal
SK-MEL-28 melanoma = tested on: SK-MEL-28 melanoma
UO-31 renal = tested on: UO-31 renal
M14 melanoma = tested on: M14 melanoma
NCI-H226 lung = tested on: NCI-H226 lung
OVCAR-8 ovarian = tested on: OVCAR-8 ovarian
SNB-75 CNS = tested on: SNB-75 CNS
SK-MEL-5 melanoma = tested on: SK-MEL-5 melanoma
SK-OV-3 ovarian = tested on: SK-OV-3 ovarian
MDA-MB-435 = tested on: MDA-MB-435

Row | Compound | TGI (RXF 393 renal) | TGI (SK-MEL-28 melanoma) | TGI (UO-31 renal) | TGI (M14 melanoma) | TGI (NCI-H226 lung) | TGI (OVCAR-8 ovarian) | TGI (SNB-75 CNS) | TGI (SK-MEL-5 melanoma) | TGI (SK-OV-3 ovarian) | GI50 (RXF 393 renal) | GI50 (SK-MEL-28 melanoma) | GI50 (UO-31 renal) | GI50 (M14 melanoma) | GI50 (NCI-H226 lung) | GI50 (OVCAR-8 ovarian) | GI50 (SNB-75 CNS) | GI50 (SK-MEL-5 melanoma) | GI50 (SK-OV-3 ovarian) | GI50 (MDA-MB-435) | TGI (MDA-MB-435)
1 | Cc1ccc(NC(=O)C2C(=O)N(c3ccc(C)cc3)C(=O)/C2=N\NC(N)=S)cc1 (configuration not stated) | > 100 µM | > 100 µM | > 100 µM | > 100 µM | > 100 µM | > 100 µM | > 100 µM | > 100 µM | > 100 µM |  |  |  |  |  |  |  |  |  |  | 
2 | CC(=O)[O][Ga]([Cl])[O]C(C)=O | > 100 µM | > 100 µM | > 100 µM | > 100 µM | > 100 µM | > 100 µM | > 100 µM | > 100 µM | > 100 µM | > 100 µM | > 100 µM | > 100 µM | > 100 µM | > 100 µM | > 100 µM | > 100 µM | > 100 µM | > 100 µM |  | 
3 | Cc1[nH]c2ccccc2c1C(=O)CC1(O)C(=O)Nc2ccccc21 (configuration not stated) | > 100 µM | > 100 µM | > 100 µM | > 100 µM | > 100 µM |  | > 100 µM | > 100 µM | > 100 µM |  |  |  |  |  |  |  |  |  |  | 
4 | C=C1C(O)C2C(=C(CCc3ccccc3)C13CC3)C(=O)C(C)(CO)C2O (configuration not stated) | > 100 µM | > 100 µM | > 100 µM | > 100 µM | > 100 µM | > 100 µM | > 100 µM | > 100 µM |  | > 100 µM | > 100 µM | > 100 µM | > 100 µM | > 100 µM | > 100 µM | > 100 µM | > 100 µM |  | > 100 µM | > 100 µM
5 | O=C(O)CCCCCCC[C@H]1S[C@H]1CCCCCCO | > 100 µM | > 100 µM | > 100 µM | > 100 µM |  | > 100 µM |  | > 100 µM | > 100 µM |  |  |  |  |  |  |  |  |  |  | 
6 | CC(=O)[CH-]C(C)=O.CC(=O)[CH-]C(C)=O.[CH2-]CCC.[CH2-]CCC.[Sn+4] | 0.292 µM | 1.67 µM | 2.21 µM | 1.86 µM | 3.45 µM | 2.05 µM | 1.79 µM | 2.15 µM | 3.09 µM | 0.0699 µM | 0.436 µM | 1.03 µM | 0.608 µM | 1.77 µM | 0.788 µM | 0.509 µM | 0.848 µM | 1.69 µM |  | 
7 | [Cl-].[O-]/N=C(\c1ccccc1)c1ccccn1.[O-]/N=C(\c1ccccc1)c1ccccn1.[O-]/N=C(\c1ccccc1)c1ccccn1.[Sm+3] |  | 94.8 µM | 55.5 µM | 40.6 µM | 62.5 µM | > 100 µM | 31.3 µM | 47 µM | > 100 µM |  | 30.5 µM | 18.7 µM | 19.6 µM | 24.1 µM | 29.8 µM | 4.49 µM | 20.5 µM | 32.6 µM |  | 
8 | COc1ccc2c(CN3CCCCC3CO)cc3cc(OC)c(OC)cc3c2c1 (configuration not stated) | 18 µM | 18.6 µM | 12.5 µM | 25 µM | 16.7 µM | 19.9 µM | 22.1 µM | 20.6 µM | 70.2 µM |  |  |  |  |  |  |  |  |  |  | 
9 | CCCCCC(=O)C(C)C1=Nc2nnc(CCCCCCCc3nnc4n3C(=O)C(C(C)C(=O)CCCCC)=N4)n2C1=O (configuration not stated) | > 100 µM | > 100 µM | > 100 µM | > 100 µM | > 100 µM | > 100 µM | > 100 µM | > 100 µM | > 100 µM |  |  |  |  |  |  |  |  |  |  | 
10 | Nc1ccccc1C(=O)CC1OC(=O)c2ccccc21 (configuration not stated) |  | > 100 µM | > 100 µM | > 100 µM | > 100 µM | > 100 µM | > 100 µM |  | > 100 µM |  |  |  |  |  |  |  |  |  |  | > 100 µM
11 | CC(C)=CC(=O)C/C(=N\NC(N)=S)C(=O)Nc1ccc(Cl)cc1 | > 100 µM | > 100 µM | > 100 µM | > 100 µM | > 100 µM | > 100 µM | > 100 µM | > 100 µM | > 100 µM |  |  |  |  |  |  |  |  |  |  | 
12 | Cc1sc2nc(-c3ccncc3)c(/C=N/N=C(N)N)n2c1C |  | > 100 µM | > 100 µM | > 100 µM | 84.6 µM |  | > 100 µM | > 100 µM | > 100 µM |  | 68.9 µM | 54.1 µM | 60.2 µM | 26.8 µM |  | 89.8 µM | 38.3 µM | 62.2 µM | 26.2 µM | > 100 µM
13 | Cc1nc(Nc2ccc(Cl)cc2)sc1C(=O)NNc1ccc([N+](=O)[O-])cc1[N+](=O)[O-] | 30.7 µM | 34.1 µM | 27.2 µM | 45.3 µM | 32.6 µM | 46.5 µM | 32.5 µM | 30.2 µM | 52.3 µM |  |  |  |  |  |  |  |  |  |  | 
14 | CC(C)=CCc1c(OC(=O)c2c(C)cc(O)cc2O)cc(CO)c(CO)c1O |  | 46.7 µM | 34.4 µM | 44.7 µM | > 100 µM | 63.9 µM | 40.7 µM | 29.1 µM | 30.9 µM |  |  |  |  |  |  |  |  |  |  | 45.9 µM
15 | COc1cccc(-c2cc(=O)c3cc(OC)ccc3[nH]2)c1 | 0.224 µM | > 100 µM | > 100 µM | 41.5 µM | 1.57 µM and 7.23 µM |  |  | 2.57 µM | 41.5 µM | 0.0144 µM | 0.612 µM and 0.0852 µM | 0.484 µM | 0.084 µM | 0.121 µM | 0.79 µM |  |  |  |  | 
16 | CO[C@H]1/C=C/O[C@@]2(C)Oc3c(C)c(O)c4c(c3C2=O)C(=O)C(/C=N/N(c2ccccc2)c2ccccc2)=C(NC(=O)/C(C)=C\C=C\[C@H](C)[C@H](O)[C@@H](C)[C@@H](O)[C@@H](C)[C@H](OC(C)=O)[C@@H]1C)C4=O |  | 3.36 µM | 3.21 µM | 3.49 µM | 3.98 µM | 4.21 µM | 2.72 µM | 3.02 µM | 3.28 µM |  | 1.71 µM | 1.65 µM | 1.79 µM | 1.97 µM | 1.99 µM | 1.38 µM | 1.64 µM | 1.81 µM | 1.68 µM | 3.09 µM
17 | c1cc(N(CCn2cccn2)CCn2cccn2)cc(N(CCn2cccn2)CCn2cccn2)c1 | > 100 µM | > 100 µM | > 100 µM | > 100 µM |  | > 100 µM | > 100 µM | > 100 µM | > 100 µM |  |  |  |  |  |  |  |  |  |  | 
